ChEMBL document CHEMBL1135808, “A new type of mixed anhydride and its applications to the synthesis of 7-substituted 8-chloro-5,5-dioxoimidazo[1,2-b][1,4,2]benzodithiazines with in vitro antitumor activity” (2002)

Legend:
[1] = test system: A549; test: In vitro total growth inhibition against non-small-cell lung cancer A 549/ATCC cell lines was reported.; assay type: functional; settings: Homo sapiens, read-out: Log TGI (converted)
[2] = test system: HCC 2998; test: In vitro growth inhibition against colon cancer HCC2998 cell line was reported.; assay type: functional; settings: Homo sapiens
[3] = test system: SK-MEL-28; test: In vitro growth inhibition against melanoma SK-MEL-28 cell line was reported.; assay type: functional; settings: Homo sapiens
[4] = test system: HT-29; test: Log of molar concentration leading to 50% cell death against colon cancer HT-29 cell line was reported; assay type: functional; settings: Homo sapiens, read-out: Log LC50 (the source's name) (converted)
[5] = test system: UO-31; test: Log of molar concentration leading to 50% cell death against renal cancer UO-31 cell line was reported; assay type: functional; settings: Homo sapiens, read-out: Log LC50 (the source's name) (converted)
[6] = test system: NCI-H23; test: Log of molar concentration leading to 50% cell death against non-small-cell lung cancer NCI-H23 cell line was reported; assay type: functional; settings: Homo sapiens, read-out: Log LC50 (the source's name) (converted)
[7] = test system: OVCAR-3; test: Log of molar concentration leading to 50% cell death against ovarian cancer OVCAR-3 cell line was reported; assay type: functional; settings: Homo sapiens, read-out: Log LC50 (the source's name) (converted)
[8] = test system: HCT-15; test: Log of molar concentration leading to 50% cell death against colon cancer HCT-15 cell line was reported; assay type: functional; settings: Homo sapiens, read-out: Log LC50 (the source's name) (converted)
[9] = test system: BT-549; test: Log of molar concentration leading to 50% cell death against breast cancer BT 549 cell line was reported; assay type: functional; settings: Homo sapiens, read-out: Log LC50 (the source's name) (converted)
[10] = test system: MDA-MB-231; test: In vitro total growth inhibition against breast cancer MDA-MB-231/ATCC cell lines was reported.; assay type: functional; settings: Homo sapiens, read-out: Log TGI (converted)
[11] = test system: A498; test: Log of molar concentration leading to 50% cell death against renal cancer A498 cell line was reported; assay type: functional; settings: Homo sapiens, read-out: Log LC50 (the source's name) (converted)
[12] = test system: SK-MEL-5; test: In vitro growth inhibition against melanoma SK-MEL-5 cell line was reported.; assay type: functional; settings: Homo sapiens
[13] = test system: MOLT-4; test: Log of molar concentration leading to 50% cell death against leukemia MOLT-4 cell line was reported; assay type: functional; settings: Homo sapiens, read-out: Log LC50 (the source's name) (converted)
[14] = test system: HOP-92; test: In vitro total growth inhibition against non-small-cell lung cancer HOP-92 cell lines was reported.; settings: Homo sapiens, read-out: Log TGI (converted)
[15] = test system: NCI-H46; test: In vitro total growth inhibition against non-small-cell lung cancer […] cell lines was reported.; assay type: functional; settings: Homo sapiens, read-out: Log TGI (converted)
[16] = test system: HCC 2998; test: Log of molar concentration leading to 50% cell death against colon cancer HCC2998 cell line was reported; assay type: functional; settings: Homo sapiens, read-out: Log LC50 (the source's name) (converted)
[17] = test system: EKVX; test: In vitro growth inhibition against non-small-cell lung cancer EKVX cell line was reported.; assay type: functional; settings: Homo sapiens
[18] = test system: MDA-N; test: Log of molar concentration leading to 50% cell death against breast cancer MDA-Ncell line was reported; assay type: functional; settings: Homo sapiens, read-out: Log LC50 (the source's name) (converted)
[19] = test system: HCT-15; test: In vitro growth inhibition against colon cancer […] cell line was reported.; assay type: functional; settings: Homo sapiens
[20] = test system: OVCAR-3; test: In vitro total growth inhibition against ovarian cancer OVCAR-3 cell lines was reported.; assay type: functional; settings: Homo sapiens, read-out: Log TGI (converted)
[21] = test system: Tumor Cell line; test: Log of molar concentration leading to 50% cell death was reported; assay type: functional; settings: Homo sapiens, read-out: Log LC50 (the source's name) (converted)
[22] = test system: SN12C; test: In vitro total growth inhibition against renal cancer SN12C cell lines was reported.; assay type: functional; settings: Homo sapiens, read-out: Log TGI (converted)
[23] = species: Homo sapiens; test: In vitro total growth inhibition against non-small-cell lung cancer EKVX cell lines was reported.; assay type: functional; settings: read-out: Log TGI (converted)
[24] = test system: PC-3; test: In vitro total growth inhibition against prostate cancer PC-3 cell lines was reported.; assay type: functional; settings: Homo sapiens, read-out: Log TGI (converted)
[25] = test system: CAKI-1; test: Log of molar concentration leading to 50% cell death against renal cancer CAKI-1 cell line was reported; assay type: functional; settings: Homo sapiens, read-out: Log LC50 (the source's name) (converted)
[26] = test system: NCI-H226; test: Log of molar concentration leading to 50% cell death against non-small-cell lung cancer NCI-H226 cell line was reported; assay type: functional; settings: Homo sapiens, read-out: Log LC50 (the source's name) (converted)
[27] = test system: SF-268; test: In vitro total growth inhibition against CNS cancer SF-268 cell lines was reported.; assay type: functional; settings: Homo sapiens, read-out: Log TGI (converted)
[28] = test system: SK-MEL-2; test: In vitro total growth inhibition against melanoma SK-MEL-2 cell lines was reported.; assay type: functional; settings: Homo sapiens, read-out: Log TGI (converted)
[29] = test system: SR; test: In vitro total growth inhibition against leukemia SR cell lines was reported.; assay type: functional; settings: Homo sapiens, read-out: Log TGI (converted)
[30] = test system: EKVX; test: Log of molar concentration leading to 50% cell death against non-small-cell lung cancer EKVX cell line was reported; assay type: functional; settings: Homo sapiens, read-out: Log LC50 (the source's name) (converted)
[31] = test system: MDA-MB-435; test: In vitro growth inhibition against breast cancer MDA-MB-435 cell line was reported.; settings: Homo sapiens
[32] = test system: LOX IMVI; test: In vitro total growth inhibition against melanoma LOX IMVI cell lines was reported.; assay type: functional; settings: Homo sapiens, read-out: Log TGI (converted)
[33] = test system: SNB-19; test: Log of molar concentration leading to 50% cell death against CNS cancer SNB-19 cell line was reported; assay type: functional; settings: Homo sapiens, read-out: Log LC50 (the source's name) (converted)
[34] = test system: HOP-62; test: In vitro growth inhibition against non-small-cell lung cancer HOP-62 cell line was reported.; assay type: functional; settings: Homo sapiens
[35] = test system: NCI/ADR-RES; test: Log of molar concentration leading to 50% cell death against breast cancer NCI/ADR-RES cell line was reported; assay type: functional; settings: Homo sapiens, read-out: Log LC50 (the source's name) (converted)
[36] = test system: HOP-92; test: In vitro growth inhibition against non-small-cell lung cancer HOP-92 cell line was reported.; assay type: functional; settings: Homo sapiens
[37] = test system: IGROV-1; test: In vitro total growth inhibition against ovarian cancer IGROV1 cell lines was reported.; assay type: functional; settings: Homo sapiens, read-out: Log TGI (converted)
[38] = test system: SN12C; test: Log of molar concentration leading to 50% cell death against renal cancer SN12C cell line was reported; assay type: functional; settings: Homo sapiens, read-out: Log LC50 (the source's name) (converted)
[39] = test system: COLO 205; test: In vitro growth inhibition against colon cancer COLO 205 cell line was reported.; assay type: functional; settings: Homo sapiens
[40] = test system: SK-OV-3; test: In vitro growth inhibition against ovarian cancer SK-OV-3 cell line was reported.; assay type: functional; settings: Homo sapiens
[41] = test system: HOP-92; test: Log of molar concentration leading to 50% cell death against non-small-cell lung cancer HOP-92 cell line was reported; assay type: functional; settings: Homo sapiens, read-out: Log LC50 (the source's name) (converted)
[42] = test system: T47D; test: Log of molar concentration leading to 50% cell death against breast cancer […] cell line was reported; assay type: functional; settings: Homo sapiens, read-out: Log LC50 (the source's name) (converted)
[43] = test system: SNB-19; test: In vitro total growth inhibition against CNS cancer SNB-19 cell lines was reported.; assay type: functional; settings: Homo sapiens, read-out: Log TGI (converted)
[44] = test system: 786-0; test: Log of molar concentration leading to 50% cell death against renal cancer […] cell line was reported; assay type: functional; settings: Homo sapiens, read-out: Log LC50 (the source's name) (converted)
[45] = test system: SW-620; test: In vitro total growth inhibition against colon cancer SW-620 cell lines was reported.; assay type: functional; settings: Homo sapiens, read-out: Log TGI (converted)

Compound `O=C(Nc1cccc2nsnc12)c1cc2c(cc1Cl)Sc1nccn1S2(=O)=O` has a TGI [1] of 38.9 µM, a GI50 [2] of 3.39 µM and a GI50 [3] of 2.45 µM. The CC50 [4] was 28.8 µM, the CC50 [5] was 50.1 µM and the CC50 [6] was 55 µM. It also gave a CC50 [7] of 6.61 µM, a CC50 [8] of 72.4 µM and a CC50 [9] of 85.1 µM. For the same compound, the TGI [10] was 24.5 µM, the CC50 [11] was 63.1 µM and the GI50 [12] was 15.8 µM. It also gave a CC50 [13] of 83.2 µM, a TGI [14] of 25.7 µM and a TGI [15] of 4.27 µM. It also gave a CC50 [16] of 55 µM, a GI50 [17] of 2.29 µM and a CC50 [18] of 56.2 µM. It also gave a GI50 [19] of 5.25 µM, a TGI [20] of 3.47 µM and a CC50 [21] of 95.5 µM. For the same compound, the TGI [22] was 28.8 µM, the TGI [23] was 4.68 µM and the TGI [24] was 3.55 µM. The CC50 [25] was 51.3 µM, the CC50 [26] was 58.9 µM and the TGI [27] was 16.2 µM. For the same compound, the TGI [28] was 25.7 µM, the TGI [29] was 4.79 µM and the CC50 [30] was 9.77 µM. The GI50 [31] was 8.13 µM, the TGI [32] was 40.7 µM and the CC50 [33] was 50.1 µM. It also gave a GI50 [34] of 1.66 µM, a CC50 [35] of 83.2 µM and a GI50 [36] of 5.89 µM. It also gave a TGI [37] of 23.4 µM, a CC50 [38] of 56.2 µM and a GI50 [39] of 17.4 µM. It also gave a GI50 [40] of 45.7 µM, a CC50 [41] of 95.5 µM and a CC50 [42] of 7.76 µM. The TGI [43] was 24.5 µM, the CC50 [44] was 55 µM and the TGI [45] was 46.8 µM.
